Biological target: T1, LIMK2 (Homo sapiens, UniProt P53671)
T1 construct: His tag (histidine-tagged; pFastBacHT vector); made in house; host or cells: Sf9 insect cells (BAC-to-BAC baculovirus system)
Test: In vitro LIMK2 inhibition assay (33P incorporation into myelin basic protein flash plates)
Format: biochemical
Description: Using the procedures described herein and methods known in the art, the additional compounds listed below in Table 1 were prepared. The LIMK2 IC50 data that is provided below for some of the compounds was determined using the assay described in Example 32.
An in vitro assay used to identify LIMK2 inhibitors was developed. The analytical readout was the incorporation of ^33P from ATP substrate into immobilized myelin basic protein coated flash plates (Perkin Elmer Biosciences), which were counted on a scintillation counter equipped with a plate reader (TopCount, Packard Bioscience, Meriden, Conn.). Using 384 well flat MBP flashplates, total assay volume was 50 μl. The HTS program utilized a Biomek FX for dilution.
For each assay, the ingredients and conditions were as follows: 200 ng of enzyme was incubated in assay buffer (1× assay buffer contains 30 mM HEPES (pH 8.0), 5 mM DTT, and 10 mM MgCl2), 10 μM ATP, 0.2 μCi [gamma-^33P]-ATP and 10 μM of potential inhibitory compound. The reaction was incubated at room temperature for 60 minutes, washed 3 times with 75 μl of stop/wash buffer (1× stop/was buffer contains 50 mM EDTA and 20 mM Tris (pH 7.4)), and then the plates were read on the scintillation counter. Different concentrations of staurosporine (400 nM, 200 nM, 100 nM and 50 nM; purchased from BIOMOL (Plymouth Meeting, Pa.)) were used as controls on each plate.

T1 sequence (P53671 whole entry): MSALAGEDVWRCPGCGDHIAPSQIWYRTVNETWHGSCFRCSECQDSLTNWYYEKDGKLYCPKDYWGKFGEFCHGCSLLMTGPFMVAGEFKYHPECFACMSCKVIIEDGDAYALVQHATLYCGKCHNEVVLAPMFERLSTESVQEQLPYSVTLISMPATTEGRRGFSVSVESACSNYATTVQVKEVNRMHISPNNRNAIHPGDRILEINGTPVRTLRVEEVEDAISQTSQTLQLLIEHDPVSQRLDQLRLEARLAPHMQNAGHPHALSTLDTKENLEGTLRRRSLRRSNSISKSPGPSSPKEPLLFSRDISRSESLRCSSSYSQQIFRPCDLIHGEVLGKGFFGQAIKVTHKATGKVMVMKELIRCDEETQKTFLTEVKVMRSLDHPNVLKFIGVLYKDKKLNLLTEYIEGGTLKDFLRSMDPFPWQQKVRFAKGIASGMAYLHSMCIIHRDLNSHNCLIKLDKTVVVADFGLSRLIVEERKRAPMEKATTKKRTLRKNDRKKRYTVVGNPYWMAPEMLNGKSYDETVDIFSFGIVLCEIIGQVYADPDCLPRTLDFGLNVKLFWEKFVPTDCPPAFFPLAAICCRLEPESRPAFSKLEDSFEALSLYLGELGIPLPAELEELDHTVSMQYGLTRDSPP

Row | IC50 [nM] | Structure (SMILES)
1 | < 250 | Cc1c[nH]c2ncnc(N3CCC(C)(C(=O)Nc4cccc(S(=O)(=O)NC(C)C)c4)CC3)c12 [N-(3-(N-isopropylsulfamoyl)phenyl)-4-methyl-1-(5-methyl-7H-pyrrolo[2,3-d]pyrimidin-4-yl)piperidine-4-carboxamide]
2 | < 250 | Cc1c[nH]c2ncnc(N3CCC(C)(C(=O)Nc4ccc(F)c(Br)c4)CC3)c12 [N-(3-bromo-4-fluorophenyl)-4-methyl-1-(5-methyl-7H-pyrrolo[2,3-d]pyrimidin-4-yl)piperidine-4-carboxamide]
3 | < 250 | CC1(C(=O)Nc2cccc(Br)c2)CCN(c2ncnc3[nH]cc(Cl)c23)CC1 [N-(3-bromophenyl)-1-(5-chloro-7H-pyrrolo[2,3-d]pyrimidin-4-yl)-4-methylpiperidine-4-carboxamide]
4 | < 250 | Cc1c[nH]c2ncnc(N3CCC(C)(C(=O)Nc4cccc(Br)c4)CC3)c12 [N-(3-bromophenyl)-4-methyl-1-(5-methyl-7H-pyrrolo[2,3-d]pyrimidin-4-yl)piperidine-4-carboxamide]
5 | < 250 | Cc1c[nH]c2ncnc(N3CCC(C)(C(=O)Nc4cccc(NC(=O)C(C)C)c4)CC3)c12 [N-(3-isobutyramidophenyl)-4-methyl-1-(5-methyl-7H-pyrrolo[2,3-d]pyrimidin-4-yl)piperidine-4-carboxamide]
6 | < 250 | COc1ccc(NC(=O)C2(C)CCN(c3ncnc4[nH]cc(C)c34)CC2)cc1 [N-(4-methoxyphenyl)-4-methyl-1-(5-methyl-7H-pyrrolo[2,3-d]pyrimidin-4-yl)piperidine-4-carboxamide]

The remaining lines, values behind:

Row | Structure (SMILES) | IC50 [nM]
7 | Cc1c[nH]c2ncnc(N3CCC(C)(C(=O)Nc4ccccc4)CC3)c12 [4-methyl-1-(5-methyl-7H-pyrrolo[2,3-d]pyrimidin-4-yl)-N-phenylpiperidine-4-carboxamide] | < 250
8 | Cc1c[nH]c2ncnc(N3CCC(CNC(=O)[C@@H](N)CCCN)(C(=O)Nc4cccc(OC(=O)N(C)C)c4)CC3)c12 [(S)-3-(4-((2,5-diaminopentanamido)methyl)-1-(5-methyl-7H-pyrrolo[2,3-d]pyrimidin-4-yl)piperidine-4-carboxamido)phenyl dimethylcarbamate] | < 250
9 | Cc1c[nH]c2ncnc(N3CCC(CNC(=O)[C@@H](N)Cc4c[nH]cn4)(C(=O)Nc4cccc(OC(=O)N(C)C)c4)CC3)c12 [(S)-3-(4-((2-amino-3-(1H-imidazol-4-yl)propanamido)methyl)-1-(5-methyl-7H-pyrrolo[2,3-d]pyrimidin-4-yl)piperidine-4-carboxamido)phenyl dimethylcarbamate] | < 250
10 | Cc1c[nH]c2ncnc(N3CCC(CNC(=O)[C@@H](N)CO)(C(=O)Nc4cccc(OC(=O)N(C)C)c4)CC3)c12 [(S)-3-(4-((2-amino-3-hydroxypropanamido)methyl)-1-(5-methyl-7H-pyrrolo[2,3-d]pyrimidin-4-yl)piperidine-4-carboxamido)phenyl dimethylcarbamate] | < 250
11 | Cc1c[nH]c2ncnc(N3CCC(C)(C(=O)Nc4cccc(CC(=O)N(C)C)c4)CC3)c12 [N-(3-(2-(dimethylamino)-2-oxoethyl)phenyl)-4-methyl-1-(5-methyl-7H-pyrrolo[2,3-d]pyrimidin-4-yl)piperidine-4-carboxamide] | < 250
12 | Cc1c[nH]c2ncnc(N3CCC(C)(C(=O)Nc4cccc(Oc5ccc(F)cc5)c4)CC3)c12 [N-(3-(4-fluorophenoxy)phenyl)-4-methyl-1-(5-methyl-7H-pyrrolo[2,3-d]pyrimidin-4-yl)piperidine-4-carboxamide] | < 250
13 | COC(=O)c1nnn(CC2(C(=O)Nc3cccc(OC(=O)N(C)C)c3)CCN(c3ncnc4[nH]cc(C)c34)CC2)c1C(=O)OC [dimethyl 1-((4-(3-(dimethylcarbamoyloxy)phenylcarbamoyl)-1-(5-methyl-7H-pyrrolo[2,3-d]pyrimidin-4-yl)piperidin-4-yl)methyl)-1H-1,2,3-triazole-4,5-dicarboxylate] | < 250
